Experimental data from US20060286159A1 (priority 2003, published 2006).
Entries after “also recorded” stand apart in the source; their conditions may differ.

Columns and labels:
Assay type in all cases: in vivo, human
[1] = test system: chronic supraspinatus tendinopathy
Excerpt: (§1) Three clinical trials were approved by an institutional Ethics Committee. Patients with clinical diagnoses of the specified tendinopathies were recruited through newspaper advertisements and private consulting rooms. All subjects were over 18 years of age, and gave written informed consent.
(§2) In the non-insertional Achilles tendinopathy trial, there were 65 patients (84 Achilles tendons) with 40 men and 25 women enrolled in the study, having a median age of 49 years (range 24 to 77 years), and a median duration of symptoms prior to the study of 16 months (range 4 to 147 months). In the extensor tendinopathy trial, there were 86 patients (95 elbows), with 42 males and 44 females, having a median age of 46 years (range 30 to 74 years), and a median duration of symptoms of 17 months (range 3 to 232 months). In the supraspinatus tendinopathy trial, there were 53 patients (57 shoulders), with 24 males and 29 females, having a median age of 52 years (range 25 to 79 years), and a median symptom duration of 14 months (range 4 to 96).
(§3) Diagnostic criteria for patient inclusion in the respective trials were as follows. The diagnosis of chronic non-insertional Achilles tendinopathy was based on an insidious onset of Achilles tendon pain, a tender nodule localized to the region 2 to 6 centimeters from the calcaneal insertion, and an ultrasound examination that excluded a frank tendon tear. The diagnosis of chronic extensor tendinopathy at the elbow was based on an insidious onset of lateral elbow pain, tenderness localized to the lateral humeral epicondyle and extensor carpi radialis brevis tendon, pain in the lateral elbow with resisted wrist or third metacarpophalangeal joint extension, and an ultrasound examination that excluded a frank tendon tear. The diagnosis of chronic supraspinatus tendinopathy was based on positive impingement signs (internal or external rotation), pain with supraspinatus muscle testing, and magnetic resonance imaging (MRI) high signal intensity without frank tear in the supraspinatus tendon.
(§4) Patients were excluded if they had tendinopathy of less than three months duration, current pregnancy, previous surgery on the affected limb or tendon, dislocation of the ipsilateral limb joints, distal neurological signs, a local corticosteroid injection in the previous three months, the current use of nitrate medications or phosphodiesterase inhibitors such as Viagra™, a family history of arthritis other than osteoarthritis, or extra-articular features of seronegative arthropathies. Generally, every participating patient could be considered to have persistent active tendinopathy.
(§5) The patients were randomly allocated into two groups. […] The active and placebo patches were indistinguishable from one another. The randomization was controlled by the senior pharmacist at the institution who also supervised the packaging of transdermal patches and their distribution to patients. Both the patients and the clinical examiner were blinded as to which group the patients were in, i.e. double-blind.
(§6) The transdermal patches were intact when distributed, and patients were required to cut the patches into quarters prior to application. Patients were also given a supply of paracetamol tablets (500 mg), and were instructed to use them exclusively for any headaches experienced.
(§7) Patients were instructed in the application of the patches at their initial visit. They were informed that the dosing regimen was one quarter of a transdermal patch to be applied daily to the skin area closest to the affected tendon. The patches were to be left in situ for 24 hours and then replaced with a new quarter patch. […] Patients were instructed to rotate the patch application site around this point with each new patch application for the six-month study duration in an effort to minimize application site irritation.
(§8) At the initial clinical assessment, all patients were instructed in the performance of a tendon specific rehabilitation program. […]

[2] = test system: chronic overuse tendinopathies; test: The three tendinopathy clinical trials taken together
Excerpt: as §1, §5, §7
A single examiner assessed all patients and recorded information on clinical outcome measures. All clinical assessments were repeated at week 0, 2, 6, 12, and 24 with an identical format. Records of headaches, paracetamol use, and compliance with patch application and the tendon rehabilitation program were also made at these scheduled visits. Patients were excluded from the trials for non-compliance at any two visits.
Outcome measures were analyzed with Sigmastat 2.0 statistical software (Jandel Scientific, California, U.S.A) using Mann-Whitney rank sum tests to compare differences between groups, and using the Wilcoxon sign rank test to compare differences within the groups. The level of significance was defined at p=0.05. A Chi square analysis of patient reported symptom outcomes at week 24 was performed. Effect size estimates were calculated by dividing the mean z-score, calculated from all outcome measures at week 24, by the square root of the sample size to given a general measure of the overall effect of the patch on pain, tendon force and function.

chronic tennis elbow = test: Example 5: patient case, chronic tennis elbow; conditions: patch 60 mcg/hr for 2 weeks
Excerpt: A patient suffering from chronic tennis elbow applies a transdermal patch delivering 60 mcg/hr nitroglycerin for a period of 2 weeks.

[3] = test system: chronic non-insertional Achilles tendinopathy; test: Non-insertional Achilles tendinopathy clinical trial (randomized, double blind, placebo controlled)
Excerpt: as §1, §2, §3, §4, §5, §6, §7, §8

[4] = week 24, more patients asymptomatic with activities of daily living than placebo, 1.25 mg/24 h patch + rehabilitation
[5] = GTN group, range over three trials
[6] = GTN groups, range over three trials

What does the source list for `O=[N+]([O-])OCC(CO[N+](=O)[O-])O[N+](=O)[O-]` [glyceryl trinitrate, 1,2,3-propanetriol trinitrate]?
Headache (Days) Average ([1]; GTN group): GTN 6 Days; Headache (Days) Median ([1]; GTN group): GTN 4 Days; Headache (Days) Total ([1]; GTN group): GTN 127 Days; Headache: percentage of patients ([1]; GTN group): (76%); No Side Effects ([1]; GTN group): GTN 30%; Tenderness Outcomes vs placebo ([1]; anteroinferior subacromial tenderness): no significant differences; Other Noted Side-Effects: Rash ([1]; application site, GTN group): Rash 8%; number needed to treat (NNT) ([1]; excellent result at 24 weeks, Chi square p=0.007): 4.5; reported rate of headache and average number of headaches experienced vs placebo ([1]; human, in vivo): significant between-group differences; number of days affected by headache vs placebo ([1]; p=0.001): significant increase; Discontinuations: Headache ([1]; patients, all GTN group): Headache 2; Paracetamol Average ([1]; used for headache, GTN group): GTN 7 tablets; Paracetamol Median ([1]; used for headache, GTN group): GTN 2 tablets; Paracetamol Total ([1]; used for headache, GTN group): GTN 138 tablets; Improved Patient Outcomes [1, 4]: 22%; patients with excellent improvement, patient reported ([1]; week 24, placebo 24%): 46%; headache as a side-effect ([2]; GTN group): majority of patients; average number of days of headache [2, 5]: 5 to 6 days; headache, patients [2, 5]: 53-76%; median number of days of headache [2, 5]: 3 to 4 days; headaches that occurred within the first two weeks of the trial ([2]; GTN groups): 72%; average paracetamol usage [2, 6]: 7-14 tablets; median paracetamol usage [2, 6]: 2-10 tablets; patients that experienced no side-effects [2, 6]: 30-44%; total paracetamol usage [2, 6]: 138-237 tablets; patients experiencing application site rash ([2]; GTN groups, range over three trials, placebo 7-12%): 8-21%; tendon pain with activity vs placebo ([2]; all three trials, timing varied): significantly improved; chance of being asymptomatic with activities of daily living vs placebo (Chi square) ([2]; at 24 weeks, all three clinical trials, p=0.001): significantly increased; more patients than in the placebo group asymptomatic with activities of daily living (rated tendon excellent) ([2]; completion of the trials, range over three trials): 21-29%; changes in patient success rates (binomial effect size displays) ([2]; equivalent to effect sizes at week 24): 12-26%; other side-effects (increase in pre-existing tinnitus, ipsilateral axillary sweating, apprehension): severity and reversibility ([2]; human, in vivo): None of these were severe, and all were reversible on discontinuation of the medication; severity of rash vs placebo ([2]; human, in vivo): greater severity of rash; patients discontinued due to headache ([2]; in each clinical trial): 1-2 patients; severity of headaches vs placebo ([2]; in general): more severe headaches; patients discontinued during the trials ([2]; of clinical trial patients, all in GTN groups, headache or application site rash): 4-6%; patients discontinued due to rash, total ([2]; three trials): five; patients discontinued for recurrent facial flushing ([2]; type 2 diabetic, reversible on discontinuation): One; decrease of patient-rated pain scores, range over the trials ([2]; week 0 compared with week 24): 64-67%; increase of force outcome measures, range over the trials ([2]; week 0 compared with week 24): 33-38%; increase of force outcome measures, average ([2]; week 0 compared with week 24, placebo […]%): 37%; decrease of patient-rated pain scores (with activity, at night, at rest), average ([2]; week 0 compared with week 24, placebo 30%): 65%; force outcome measures vs placebo ([2]; week 24, all three trials): significant increases; mean estimated effect sizes ([2]; week 24, range over three trials): 0.12-0.26; continuation of the reduction of symptoms after discontinuance (chronic tennis elbow): at least two weeks; Headache (Days) Average ([3]; GTN group): GTN 5 Days; Headache (Days) Median ([3]; GTN group): GTN 4 Days; Headache (Days) Total ([3]; GTN group): 85 days; Headache: percentage of patients ([3]; GTN group): 53%; No Side Effects ([3]; GTN group): GTN 44%; Other Noted Side-Effects: Increase Tinnitus ([3]; GTN group): Tinnitus (3%); Tenderness Outcomes: Achilles tenderness vs placebo ([3]; Week 12 (p=0.02)): significant decreases; also recorded: significantly less; also recorded: Decreased Week; Pain Outcomes: Achilles tendon pain with activity vs placebo ([3]; Week 12 (p=0.02) / 24 (p=0.03)): significant decrease; also recorded: Decreased; Pain Outcomes: night pain vs placebo ([3]; Week 12 (p=0.04)): significant decrease; also recorded: Decreased; Functional Outcomes Measures: Hop Test vs placebo ([3]; Week 24): Increased Hop; Force Outcomes: ORI-ASTS mean plantarflexion total work vs placebo ([3]; Week 24 (p=0.04), from baseline levels): significant increase; also recorded: Increased Mean; Other Noted Side-Effects: Rash ([3]; application site, GTN group): Rash 16%,; number needed to treat (NNT) ([3]; excellent result at 24 weeks, Chi square p=0.001): 3.4; total amount of paracetamol required for headache treatment vs placebo ([3]; p=0.001): significant increases; also recorded: significant between-group differences; Discontinuations: Headache ([3]; patients, all GTN group): Headache 1; Discontinuations: Rash ([3]; patients, all GTN group): Rash,; Paracetamol Average ([3]; used for headache, GTN group): GTN 14 tablets; Paracetamol Median ([3]; used for headache, GTN group): GTN 10 tablets; Paracetamol Total ([3]; used for headache, GTN group): GTN 237 tablets; pain scores after the 10 hop test vs placebo ([3]; week 24 (p=0.005)): significant decrease; Improved Patient Outcomes [3, 4]: 29%; patients with excellent improvement (asymptomatic with activities of daily living), patient reported ([3]; week 24, placebo 49%): 78%
